Several values for one entry are separate records, joined by “and”; a condition that tells them apart may be missing. Equal entries are not always repeated. Where two headings read alike, the source gives them in different places. Marks after values point to notes of the source that are not given here.
Key:
[1] = tested on: germline BRCA1/2-mutated HER2- advanced breast cancer; design: method as in PMID 30110579; conditions: 1 mg once daily; cited from earlier work
[2] = tested on: advanced hematologic malignancies (AML, MDS, CLL, MCL); test: Anti-leukemic activity (best overall response); format: in vivo, human
Description: Objective response, duration of objective response, and time to progression or treatment failure were recorded. Response was measured by the following response criteria: the European leukemiaNet for subjects with AML [30], the International Working Group for Prognosis in MDS for subjects with MDS [31, 32], the International Workshop on Chronic Lymphocytic leukemia (iwCLL) for subjects with CLL, and the Revised Response Criteria for MCL [34].

[3] = Plasma pharmacokinetics after multiple daily talazoparib dosing; format: in vivo, human
Description: (§1) Plasma and urine samples were assayed for talazoparib concentrations by Covance Laboratories Inc., using validated high performance liquid chromatography with tandem mass spectrometry detection methods. The lower limits of quantitation for […] and urine were 5.0 pg/ml and 25.0 pg/ml, respectively. Evaluated PK parameters included maximum concentration (Cmax), minimum concentration (Cmin), time to maximum plasma concentration (Tmax), area under the curve from time 0 to last measurable concentration (AUC0–t), area under the curve from time 0 to 24 h post-dose (AUC0–24), amount of drug excreted into the urine from time 0 to 24 h (Ae0–24), fraction of administered drug excreted in the urine from time 0 to 24 h (Fe0–24), and average renal clearance from time 0 to 24 h (ARC0–24); ARC0–24 was calculated as (Ae0–24/AUC0–24). PK parameters were calculated using Phoenix™ WinNonlin® 6.1.
(§2) Summary statistics for plasma and urine talazoparib concentrations and PK parameters were calculated by grouping subjects in cohorts 1 and 2 together to provide a larger sample size at each dose level.

[4] = tested on: patients with germline BRCA1/2 mutations and solid tumors; conditions: NCT01286987; cited from earlier work
[5] = tested on: patients with advanced hematologic malignancies (cohort 1: AML/MDS; cohort 2: CLL/MCL); test: Dose-limiting toxicity / MTD, Phase I 3 + 3 dose-escalation of once-daily oral talazoparib (NCT01399840); format: in vivo; conditions: for Maximum tolerated dose (MTD): oral once daily, 21-day cycles
Description: This study was an open-label, two-cohort, Phase I, dose-escalation study of once-daily talazoparib monotherapy in patients with advanced hematologic malignancies (ClinicalTrials.gov Identifier: NCT01399840) conducted at seven sites in the US and the UK between July 2011 and November 2013. Enrollment and dose escalation were conducted independently in each cohort of the study. Talazoparib was administered orally, once a day for repeated 21-day cycles under fasting conditions. Each cohort consisted of two stages: dose escalation (stage 1) and dose expansion (stage 2). Dose escalation followed a standard 3 + 3 dose-escalation design, where the first patient in each group was observed from cycle 1 day 1 through cycle 1 day 8 before two to five additional patients were treated in that dose level. […] Planned talazoparib dose levels included 0.1, 0.2, 0.3, 0.45, 0.9, 1.35, and 2.0 mg/day.
The primary objective of the study was to establish the MTD of daily oral talazoparib in molecularly unselected patients with AML or MDS (cohort 1) and in patients with CLL or MCL (cohort 2). The MTD was defined as the highest dose level at which no more than one of six patients experienced a DLT. A DLT was defined as any of the following treatment-related toxicities occurring during cycle 1: in cohort 1, hematologic adverse events (AEs) included bone marrow hypoplasia (≤10% cellularity) lasting ≥28 days. Non-hematologic toxicities included any Grade ≥3 AE except for the following: (1) a non-hematologic Grade 3 laboratory AE that is asymptomatic and rapidly reversible (returned to baseline or to Grade ≤1 within 3 days) unless identified as clinically relevant by the investigator; (2) Grade 3 nausea, vomiting, and/or diarrhea responsive to medications within 24 h; (3) Grade 3 tumor lysis syndrome; (4) Grade 3 stomatitis that resolves within 7 days; or (5) Grade 3 fatigue unless ≥2 grade increase from baseline lasting >3 days. Missing ≥4 doses of talazoparib during cycle 1 for treatment-related non-hematologic toxicity was also defined as a DLT. In cohort 2, hematologic AEs included Grade 4 thrombocytopenia persisting for >7 days and/or resulting in Grade ≥2 hemorrhage, or Grade 4 neutropenia lasting >7 days and/or associated with fever (hematologic AEs for patients with bone marrow effacement [i.e., platelet count ≤50 × 10^9/L and neutrophil count <1 × 10^9/L] included >50% decrease in platelet count persisting for >7 days or resulting in Grade ≥2 hemorrhage, or >50% decrease in neutrophil count and/or associated with fever or systemic infection). For non-hematologic AEs, the same criteria used for cohort 1 were used to define DLT.
Patients experiencing a DLT during cycle 1 could resume talazoparib treatment at the same or reduced dose after recovery to baseline or Grade ≤1 within 21 days of treatment interruption. Patients not experiencing a DLT during cycle 1 could receive additional treatment until disease progression, treatment failure, or relapse. Patients with persisting non-hematologic Grade 1/2 toxicity were dose reduced ∼25%. Dosing was stopped for patients with a Grade 3/4 non-hematologic toxicity and resumed with a 25%–50% dose reduction if toxicity resolved to Grade 0/1 after >7 days, or returned to baseline. Patients with non-hematologic Grade 3 toxicity that resolved to Grade 0/1 in <7 days could resume with ∼25% reduction.
For determination of the MTD, only the treated evaluable patients were included. No formal sample size calculations based on statistical power were performed. Descriptive statistics were used to characterize all outcomes.

[6] = Urine pharmacokinetics after multiple daily talazoparib dosing; format: in vivo, human
Description: as §1, §2

PARP = tested on: PARP; design: method as in PMID 28302823, PMID 24356813, PMID 32241924; conditions: in vitro; cited from earlier work
[7] = tested on: patients with advanced hematologic malignancies (cohort 1: AML/MDS; cohort 2: CLL/MCL); format: in vivo, human; conditions: Cohort 1, 0.10 mg/day (n = 3)
Description: AEs were coded in accordance with The Medical Dictionary for Regulatory Activities, version 16.1. Treatment-emergent AEs (TEAEs) were defined as AEs that were new, increased in frequency, or worsened in severity, after the first talazoparib dose. AEs counted as drug-related had been classified by investigators as possibly or probably related to talazoparib.
All analyses in this open-label, dose-finding study were descriptive in nature. Descriptive summaries of continuous variables, including the mean, standard deviation (SD), median, range, and, where appropriate, 95% CI and/or interquartile range, were determined using the Statistical Analysis Software (SAS), version 9.2. Descriptive summaries of categorical variables included the number of patients and percentages. Data were summarized with respect to the dose level at which the patients started treatment. Cohorts were defined as all patients who began treatment at a given dose level.

[8] = 1.35 mg/day, cycle 2 day 1, plasma, n = 3, median (range)
[9] = 1.35 mg/day, multiple daily dosing, urine, n = 2, geometric mean (geometric CV%)

SMILES: Cn1ncnc1[C@H]1c2n[nH]c(=O)c3cc(F)cc(c23)N[C@@H]1c1ccc(F)cc1 [talazoparib]
- Progression-free survival compared with physician's choice of chemotherapy [1]: significantly longer progression-free survival
- Stable disease (best overall response) ([2]; Cohort 1, AML (n = 21)): 9 (42.9) n (%)
- Stable disease ≥16 weeks ([2]; Cohort 1, AML (n = 21)): 2 (9.5)^‡ n (%)
- Stable disease (best overall response) ([2]; Cohort 1, All (n = 25)): 13 (52.0) n (%)
- Stable disease ≥16 weeks ([2]; Cohort 1, All (n = 25)): 5 (20.0) n (%)
- Stable disease (best overall response) ([2]; Cohort 1, MDS (n = 4)): 4 (100) n (%)
- Stable disease ≥16 weeks ([2]; Cohort 1, MDS (n = 4)): 3 (75.0)^§ n (%)
- Stable disease (best overall response) ([2]; Cohort 2, All (n = 8)): 5 (62.5) n (%)
- Stable disease ≥16 weeks ([2]; Cohort 2, All (n = 8)): 1 (12.5) n (%)
- Stable disease (best overall response) ([2]; Cohort 2, CLL (n = 4)): 3 (75.0) n (%)
- Stable disease ≥16 weeks ([2]; Cohort 2, CLL (n = 4)): 0 n (%)
- Stable disease (best overall response) ([2]; Cohort 2, MCL (n = 4)): 2 (50.0) n (%)
- Stable disease ≥16 weeks ([2]; Cohort 2, MCL (n = 4)): 1 (25.0) n (%)
- Patients with stable disease ([2]; both cohorts, N = 33): 54.5%
- Stable disease of at least 16 weeks' duration ([2]; both cohorts, N = 33): six
- Transfusion independence ([2]; one with MDS and one with AML): two
- AR (accumulation ratio) [3, 8]: 3.80 (3.28, 4.22)
- Tmax [3, 8]: 1.03 (1.00, 4.00) hr
- AUC(0-t) ([3]; human, in vivo, 1.35 mg/day, cycle 2 day 1, plasma, n = 3, geometric mean (geometric CV%), read-out: AUC0–24): 226 ng·h/mL
- AUC(0-t) ([3]; human, in vivo, 1.35 mg/day, cycle 2 day 1, plasma, n = 3, geometric mean (geometric CV%), read-out: AUC0–t): 225 ng·h/mL
- Cmax ([3]; human, in vivo, 1.35 mg/day, cycle 2 day 1, plasma, n = 3, geometric mean (geometric CV%)): 19.7 ng/mL
- Total exposure vs dose ([3]; in vivo): dose-proportional increases in total exposure
- Maximum tolerated dose (MTD) [4]: 1 mg once daily
- Maximum tolerated dose (MTD) ([5]; Cohort 1 (AML/MDS)): < 2.0 mg/day and 1.35 mg/day
- DLT AE: Neutropenic sepsis ([5]; Cohort 1, 0.10 mg/day (n = 3)): 0 (0.0) n (%)
- DLT AE: Neutropenic sepsis ([5]; Cohort 1, 0.20 mg/day (n = 3)): 0 (0.0) n (%)
- DLT AE: Neutropenic sepsis ([5]; Cohort 1, 0.30 mg/day (n = 5)): 0 (0.0) n (%)
- DLT AE: Neutropenic sepsis ([5]; Cohort 1, 0.45 mg/day (n = 3)): 0 (0.0) n (%)
- DLT AE: Neutropenic sepsis ([5]; Cohort 1, 0.90 mg/day (n = 4)): 0 (0.0) n (%)
- DLT AE: Neutropenic sepsis ([5]; Cohort 1, 1.35 mg/day (n = 3)): 0 (0.0) n (%)
- DLT AE: Neutropenic sepsis ([5]; Cohort 1, 2.00 mg/day (n = 4)): 1 (25.0)^† n (%)
- DLT AE: Neutropenic sepsis ([5]; Cohort 1, All (n = 25)): 1 (4.0) n (%)
- Maximum tolerated dose (MTD) ([5]; Cohort 2 (CLL/MCL)): < 0.9 mg/day and ~0.9 mg/day
- DLT AE: Neutropenic sepsis ([5]; Cohort 2, 0.10 mg/day (n = 3)): 0 (0.0) n (%)
- DLT AE: Neutropenic sepsis ([5]; Cohort 2, 0.90 mg/day (n = 5)): 0 (0.0) n (%)
- DLT AE: Neutropenic sepsis ([5]; Cohort 2, All (n = 8)): 0 (0.0) n (%)
- MTD in patients with hematologic malignancies (approximate range) ([5]; monotherapy, once daily, both cohorts): ~1 mg
- Ae0–24 [6, 9]: 0.531 (29.8) mg
- Fe0–24 (fraction of administered drug excreted in urine) [6, 9]: 0.393 (29.8)
- Major clearance pathway ([6]; human, in vivo): urinary elimination is the major clearance pathway
- PARP-trapping activity compared with other PARP inhibitors (PARP): higher PARP-trapping activity
- Any AEs of CTCAE Grade of 5 (death) [7]: 0 (0.0) n (%)
